Reference: patent publication US8138176B2, “Imidazo compounds” (Novartis AG, priority 2006, dated 2012)

Tested on: plasma aldosterone and corticosterone levels
Experiment: Suppression of plasma aldosterone and corticosterone levels in ACTH-stimulated rats
Assay type: in vivo, Wistar rats
Conditions: rat plasma, 4 mg/kg p.o., 2 h after dosing vs 1 h before dosing
Protocol: The aldosterone- and corticosterone-suppressing activity of herein described compounds may be assessed with the following in vivo protocol.
Adult male Wistar rats weighing between 250 and 350 grams are kept under the usual 12 hour light and 12 hour dark conditions at a temperature of 23° C.±2° C. On the first day of the experiment, the animals receive a subcutaneous injection of a depot ACTH product in a dose of 1.0 mg/kg weight (SYNACTHEN-Depot, Novartis, Basel, CH) 16 hours prior to the administration of a test compound. […] An alternative method to stimulate aldosterone secretion consists in subjecting rats to a low salt diet for 48 hours and applying the diuretic furosemide at 10 mg/kg by subcutaneous or intraperitoneal administration 16 hours, respectively 2 hours prior to the start of the experiment. On the second day of the experiment, the animals are divided into test groups of 5 animals and subjected to a first bleed 1 hour prior to the administration of test compound. Subsequently, and 16 hours after the injection of the ACTH product, the animals receive either vehicle or test compound dissolved in vehicle in a variable dose range from 0.02 to 20 mg/kg by oral gavage. The animals are bled two more times from the vena subclavia under isoflurane anaesthesia 2 and 6 hours after dosing. The blood is collected in heparin-treated tubes. The plasma samples are obtained by centrifugation and stored at −20° C. An alternative method to bleed animals time-dependently consists in using animals that are chronically carotid catheterized which allows the periodical sampling of up to 0.2 ml of blood using an AccuSampler (DiLab Europe, Lund, Sweden). The blood sampling with the AccuSampler may occur 1 hour prior to the administration of a test compound and 2, 4, 6, 8, 12, 16 and 24 hours thereafter. The blood samples are anticoagulated with heparin and centrifuged. The aldosterone and corticosterone concentrations of the plasma samples can be determined with a radioimmunoassay as described above for the in vitro test systems.
The selective suppression of plasma steroid levels as for instance aldosterone in comparison to corticosterone may serve as a measure for in vivo bioavailability and pharmacodynamic enzyme inhibitory activity of the herein described compounds. The evaluation of the data may occur relative to the application of vehicle or quantitatively by determination of the area under the curve (AUC).

Structure (SMILES): Fc1ccc(C2COCc3cncn32)cc1 (stereo not shown) [Example 14, 5-(4-Fluorophenyl)-5,6-dihydro-8H-imidazo[5,1-c][1,4]oxazine]
- Aldosterone levels (% change at 2 h): −58 % change
- Corticosterone levels (% change at 2 h): −7 % change

Structure (SMILES): CC(=O)c1ccc(C2COCc3cncn32)cc1 (stereo not shown) [Example 16]
- Aldosterone levels (% change at 2 h): −67 % change
- Corticosterone levels (% change at 2 h): −9 % change
